From ChEMBL document CHEMBL1255229, “Novel antimicrobial peptides that exhibit activity against select agents and other drug resistant bacteria” (2010)
Converted amounts (≈) assume the structure as drawn. Starred links: 1 amine or outer side, 2 acyl side, 3 side chain; linkers in the order of their positions; H or OH if unused. Non-standard residues stand in square brackets, D forms with d. Residues, ends and D or L forms follow the SMILES beside them. X1 = O=C([C@@H]1CN([*:1])C2CCCCC21)[*:2]; Tic = O=C(O)[C@@H]1Cc2ccccc2CN1; Orn = NCCC[C@H](N)C(=O)O; Dab = NCC[C@H](N)C(=O)O; Ahx = NCCCCCC(=O)O; βAla = NCCC(=O)O

How the values were obtained:
Assay type in all cases: functional
Brucella melitensis = assay: Antimicrobial activity against Brucella melitensis 16 M after 24 hrs
Acinetobacter baumannii [1] = assay: Antimicrobial activity against Acinetobacter baumannii ATCC 19606 after 24 hrs; details: ATCC 19606 = CIP 70.34 = JCM 6841, 24 h
Acinetobacter baumannii [2] = assay: Antimicrobial activity against Acinetobacter baumannii WRAIR after 24 hrs
Burkholderia mallei = assay: Antimicrobial activity against Burkholderia mallei ATCC 23444 after 24 hrs; details: ATCC 23444, 24 h
Brucella suis = assay: Antimicrobial activity against Brucella suis ATCC 23445 after 24 hrs; details: ATCC 23445, 24 h
Staphylococcus aureus = assay: Antimicrobial activity against methicillin-resistant Staphylococcus aureus ATCC 33591 after 24 hrs; details: ATCC 33591, 24 h
Yersinia pestis = assay: Antimicrobial activity against Yersinia pestis CO92 after 24 hrs; details: CO92, 24 h
Brucella abortus = assay: Antimicrobial activity against Brucella abortus 2308 after 24 hrs; details: Brucella abortus, 2308, 24 h
Francisella tularensis = assay: Antimicrobial activity against Francisella tularensis SCHU-S4 after 24 hrs; details: SCHU-S4, 24 h
Bacillus anthracis = assay: Antimicrobial activity against Bacillus anthracis Ames after 24 hrs
[3] = system: Burkholderia pseudomallei; assay: Antimicrobial activity against Burkholderia pseudomallei BURK003(1026b) after 24 hrs

SMILES	MIC (Brucella melitensis)	MIC (Acinetobacter baumannii [1])	MIC (Acinetobacter baumannii [2])	MIC (Burkholderia mallei)	MIC (Brucella suis)	MIC (Staphylococcus aureus)	MIC (Yersinia pestis)	MIC (Brucella abortus)	MIC (Francisella tularensis)	MIC (Bacillus anthracis)	MIC [3]
CC(=O)NCC(=O)N[C@@H](Cc1ccccc1)C(=O)N1Cc2ccccc2C[C@H]1C(=O)N1C[C@@H](C(=O)NCC(=O)N[C@@H](CCCCN)C(=O)N2Cc3ccccc3C[C@H]2C(=O)N2C[C@@H](C(=O)NCC(=O)N[C@@H](Cc3ccccc3)C(=O)N3Cc4ccccc4C[C@H]3C(=O)N3C[C@@H](C(=O)NCC(=O)N[C@@H](CCCCN)C(=O)N4Cc5ccccc5C[C@H]4C(=O)NCCCCCC(=O)N[C@@H](CCCCN)C(=O)N[C@@H](CCCCN)C(=O)N[C@@H](CCCCN)C(=O)N[C@@H](CCCCN)C(N)=O)C4CCCCC43)C3CCCCC32)C2CCCCC21 (stereo not given in full) (Ac-GF[Tic][X1]GK[Tic][X1]GF[Tic][X1]GK[Tic][Ahx]KKKK-NH2)	196 µM (≈ 501 µg/mL)	3 µM (≈ 7.66 µg/mL)	6.1 µM (≈ 15.6 µg/mL)	196 µM (≈ 501 µg/mL)	196 µM (≈ 501 µg/mL)	196 µM (≈ 501 µg/mL)	48.9 µM (≈ 125 µg/mL)	196 µM (≈ 501 µg/mL)	196 µM (≈ 501 µg/mL)	48.9 µM (≈ 125 µg/mL)	196 µM (≈ 501 µg/mL)
CC(=O)NCC(=O)N[C@@H](Cc1ccccc1)C(=O)N1Cc2ccccc2C[C@H]1C(=O)N1C[C@@H](C(=O)NCC(=O)N[C@@H](CCCCN)C(=O)N2Cc3ccccc3C[C@H]2C(=O)N2C[C@@H](C(=O)NCC(=O)N[C@@H](Cc3ccccc3)C(=O)N3Cc4ccccc4C[C@H]3C(=O)N3C[C@@H](C(=O)NCC(=O)N[C@@H](CCCCN)C(=O)N4Cc5ccccc5C[C@H]4C(=O)N[C@@H](CCCN)C(=O)N[C@@H](CCCN)C(=O)N[C@@H](CCCN)C(=O)N[C@@H](CCCN)C(N)=O)C4CCCCC43)C3CCCCC32)C2CCCCC21 (stereo not given in full) (Ac-GF[Tic][X1]GK[Tic][X1]GF[Tic][X1]GK[Tic][Orn][Orn][Orn][Orn]-NH2)	104 µM (≈ 248 µg/mL)	6.5 µM (≈ 15.5 µg/mL)	6.5 µM (≈ 15.5 µg/mL)	209 µM (≈ 498 µg/mL)	13 µM (≈ 31 µg/mL)	52.4 µM (≈ 125 µg/mL)	26.2 µM (≈ 62.5 µg/mL)	209 µM (≈ 498 µg/mL)	105 µM (≈ 250 µg/mL)	0.81 µM (≈ 1.93 µg/mL)	209 µM (≈ 498 µg/mL)
CC(=O)NCC(=O)N[C@@H](Cc1ccccc1)C(=O)N1Cc2ccccc2C[C@H]1C(=O)N1C[C@@H](C(=O)NCC(=O)N[C@@H](CCCCN)C(=O)N2Cc3ccccc3C[C@H]2C(=O)N2C[C@@H](C(=O)NCC(=O)N[C@@H](Cc3ccccc3)C(=O)N3Cc4ccccc4C[C@H]3C(=O)N3C[C@@H](C(=O)NCC(=O)N[C@@H](CCCCN)C(=O)N4Cc5ccccc5C[C@H]4C(=O)NCCC(=O)N[C@@H](CCCCN)C(=O)N[C@@H](CCCCN)C(=O)N[C@@H](CCCCN)C(=O)N[C@@H](CCCCN)C(N)=O)C4CCCCC43)C3CCCCC32)C2CCCCC21 (stereo not given in full) (Ac-GF[Tic][X1]GK[Tic][X1]GF[Tic][X1]GK[Tic][βAla]KKKK-NH2)	199 µM (≈ 500 µg/mL)	6.2 µM (≈ 15.6 µg/mL)	6.2 µM (≈ 15.6 µg/mL)	199 µM (≈ 500 µg/mL)	199 µM (≈ 500 µg/mL)	199 µM (≈ 500 µg/mL)	199 µM (≈ 500 µg/mL)	199 µM (≈ 500 µg/mL)	199 µM (≈ 500 µg/mL)	12.4 µM (≈ 31.2 µg/mL)	199 µM (≈ 500 µg/mL)
CC(=O)NCC(=O)N[C@@H](Cc1ccccc1)C(=O)N1Cc2ccccc2C[C@H]1C(=O)N1C[C@@H](C(=O)NCC(=O)N[C@@H](CCCNC(=N)N)C(=O)N2Cc3ccccc3C[C@H]2C(=O)N2C[C@@H](C(=O)NCC(=O)N[C@@H](Cc3ccccc3)C(=O)N3Cc4ccccc4C[C@H]3C(=O)N3C[C@@H](C(=O)NCC(=O)N[C@@H](CCCNC(=N)N)C(=O)N4Cc5ccccc5C[C@H]4C(=O)N[C@@H](CCCNC(=N)N)C(=O)N[C@@H](CCCNC(=N)N)C(=O)N[C@@H](CCCNC(=N)N)C(=O)N[C@@H](CCCNC(=N)N)C(N)=O)C4CCCCC43)C3CCCCC32)C2CCCCC21 (stereo not given in full) (Ac-GF[Tic][X1]GR[Tic][X1]GF[Tic][X1]GR[Tic]RRRR-NH2)	192 µM (≈ 501 µg/mL)	5.98 µM (≈ 15.6 µg/mL)	24 µM (≈ 62.6 µg/mL)	192 µM (≈ 501 µg/mL)	192 µM (≈ 501 µg/mL)	96 µM (≈ 250 µg/mL)	192 µM (≈ 501 µg/mL)	192 µM (≈ 501 µg/mL)	192 µM (≈ 501 µg/mL)	5.98 µM (≈ 15.6 µg/mL)	192 µM (≈ 501 µg/mL)
CC(=O)NCC(=O)N[C@@H](Cc1ccccc1)C(=O)N1Cc2ccccc2C[C@H]1C(=O)N1C[C@@H](C(=O)NCC(=O)N[C@@H](CCN)C(=O)N2Cc3ccccc3C[C@H]2C(=O)N2C[C@@H](C(=O)NCC(=O)N[C@@H](Cc3ccccc3)C(=O)N3Cc4ccccc4C[C@H]3C(=O)N3C[C@@H](C(=O)NCC(=O)N[C@@H](CCN)C(=O)N4Cc5ccccc5C[C@H]4C(=O)N[C@@H](CCN)C(=O)N[C@@H](CCN)C(=O)N[C@@H](CCN)C(=O)N[C@@H](CCN)C(N)=O)C4CCCCC43)C3CCCCC32)C2CCCCC21 (stereo not given in full) (Ac-GF[Tic][X1]G[Dab][Tic][X1]GF[Tic][X1]G[Dab][Tic][Dab][Dab][Dab][Dab]-NH2)	220 µM (≈ 500 µg/mL)	3.4 µM (≈ 7.73 µg/mL)	3.4 µM (≈ 7.73 µg/mL)	220 µM (≈ 500 µg/mL)	220 µM (≈ 500 µg/mL)	220 µM (≈ 500 µg/mL)	220 µM (≈ 500 µg/mL)	220 µM (≈ 500 µg/mL)	220 µM (≈ 500 µg/mL)	6.8 µM (≈ 15.5 µg/mL)	220 µM (≈ 500 µg/mL)
